# Measurements reported in US20150025077A1 (COYOTE PHARMACEUTICALS, INC., priority 2012, published 2015).
# Where “and” joins values, the source holds several entries; their conditions need not be identical. Equal values may be shown once. Read-outs that look alike come from different tables or passages of the source.
# Columns and labels:
# Sod1 mutant mice = format: in vivo
# Description: Values represent means±SEMs.
# Subjects were weighed and tested for Grip Strength, and assigned Clinical and Neurological scores three times a week beginning at P90 and five times a week beginning at P100. The table below summarizes the experimental design of the study.
# The grip strength test assesses motor function and control of the fore- and hindpaws. Mice were allowed to grab the bars on the Chatillon DFIS-10 digital force gauge (Largo, Fla.), while being gently pulled parallel away from the bars by the tail. The maximum force measured prior to release of the subject's paw from the bar was recorded.
# Animals were scored using the scoring system tabulated below.
# [1] = Pharmacokinetics of CNS-102 in rats (IV, oral); format: in vivo; settings: rat
# Experimental: Rats were administered a single dose of CNS-102 either intravenously (12 mg/kg) or orally (24 mg/kg), and blood samples were taken to measure the average plasma concentrations of CNS-102 over time.
# The formulation for this study includes the following: […]
# Formulations: (Dose: 24 mg/kg; Study Date: 4-16-2012)
# HSP90 = HSP90 gene expression in rat brain tissue, qRT-PCR; format: in vivo; settings: 12 mg/kg oral
# Experimental: […] Expression of selected HSPs was detected using qRT-PCR with expression of the GAPDH gene used as the control. To represent the effect of CNS-102 on HSP expression, mean fold change is calculated as CNS-102 treated/PBS treated for each HSP at each time point.
# SOD1 mice = test: CatWalk gait analysis in SOD1 mice; format: in vivo, mouse; set-up: Hind stride length, Mean/average: unit not given beside the values
# Description: Prior to onset, there was little to no difference between the transgenic and wildtype groups. Transgenic animals tended to rely more on front paws for movement as weakness and paralysis in the hind paws progressed. This began to show around timepoint P100, coinciding with the expected onset of disease. This impairment was seen through changes in front and hind paw step cycle, print area, mean intensity, and base of support.
# [2] = mouse, in vivo, po, 12 mg/kg
# Description: Blood and serum samples from days P70 and P100 were collected on three animals from each of the six treatment groups. Hematology measures were white blood cell count, red blood cell count, hemoglobin, hematocrit, mean corpuscular volume, mean corpuscular hemoglobin, mean corpuscular hemoglobin concentration, and platelets. Chemistry values were alanine aminotransferase, aspartate aminotransferase, albumin, total protein, gamma globulin, blood urea nitrogen, cholesterol, and glucose. No analyses were conducted on any samples collected after P100.
# HSP70 = settings: rat eyes, single dose 12 mg/kg
# [3] = 12 mg/kg IV, individual rats 1-3, 12 mg/kg
# [4] = 12 mg/kg IV, individual rats 2, 3, 12 mg/kg
# [5] = 24 mg/kg oral vs 12 mg/kg IV, average
# [6] = 24 mg/kg oral, individual rats 4-6, 24 mg/kg
smiles,measurement,setting,value
CC(=O)CC/C=C(\C)CC/C=C(\C)CC/C=C(\C)CCC=C(C)C [CNS-102],clinical and neuroscore testing,"Sod1 mutant mice; Sod1 mutant mice, CNS-102 12 mg/kg or Riluzole 8 mg/kg daily oral, vs vehicle",tended to outperform group D
same,neuroscore testing,"Sod1 mutant mice; Sod1 mutant mice, several timepoints around and after P100, vs vehicle",significantly outperforms group D
same,blood and neurology examinations,Sod1 mutant mice; more than two months of once-daily oral 12 mg/kg,no abnormalities in blood and neurology examinations
same,body weight,"Sod1 mutant mice; wild type mice, group F (CNS-102) vs group E (vehicle)",no noticeable differences
same,toxicity or behavioral abnormalities,Sod1 mutant mice; wildtype animals dosed with vehicle versus CNS-102 12 mg/kg daily,does not lead to obvious toxicity or behavioral abnormalities
same,Plasma Concentration of CNS-102,"[1]; 12 mg/kg IV, 5 min, average",2402.5 ng/mL
same,Plasma Concentration of CNS-102,"[1]; 12 mg/kg IV, 5 min, individual rats 1-3, 12 mg/kg",1268.2 ng/mL and 4087.5 ng/mL
same,Plasma Concentration of CNS-102,"[1]; 12 mg/kg IV, 10 min, average",869.6 ng/mL
same,Plasma Concentration of CNS-102,"[1]; 12 mg/kg IV, 10 min, individual rats 1-3, 12 mg/kg",227.0 ng/mL and 929.0 ng/mL
same,Plasma Concentration of CNS-102,"[1]; 12 mg/kg IV, 20 min, average",518.9 ng/mL
same,Plasma Concentration of CNS-102,"[1]; 12 mg/kg IV, 20 min, individual rats 1-3, BQL set to zero, 12 mg/kg",0.00 ng/mL and 652.7 ng/mL
same,Plasma Concentration of CNS-102,"[1]; 12 mg/kg IV, 30 min, average",334.7 ng/mL
same,Plasma Concentration of CNS-102,"[1]; 12 mg/kg IV, 30 min, individual rats 1-3, BQL set to zero",0.00 ng/mL
same,Plasma Concentration of CNS-102,"[1]; 12 mg/kg IV, 60 min, average",325.8 ng/mL
same,Plasma Concentration of CNS-102,"[1]; 12 mg/kg IV, 60 min, individual rats 1-3, BQL set to zero",0.00 ng/mL
same,Plasma Concentration of CNS-102,"[1]; 12 mg/kg IV, 120 min, average",150.2 ng/mL
same,Plasma Concentration of CNS-102,"[1]; 12 mg/kg IV, 120 min, individual rats 1-3, BQL set to zero",0.00 ng/mL
same,Plasma Concentration of CNS-102,"[1]; 12 mg/kg IV, 240 min, average",209.0 ng/mL
same,Plasma Concentration of CNS-102,"[1]; 12 mg/kg IV, 240 min, individual rats 1-3, BQL set to zero",0.00 ng/mL
same,Plasma Concentration of CNS-102,"[1]; 12 mg/kg IV, 480 min, average",77.4 ng/mL
same,Plasma Concentration of CNS-102,"[1]; 12 mg/kg IV, 480 min, individual rats 1-3, BQL set to zero",0.00 ng/mL
same,Plasma Concentration of CNS-102,"[1]; 12 mg/kg IV, 720 min, average",0.0 ng/mL
same,Plasma Concentration of CNS-102,"[1]; 12 mg/kg IV, 720 min, individual rats 1-3, BQL set to zero",0.00 ng/mL
same,AUC(0-inf),"[1]; 12 mg/kg IV, average",208728 ng·min/mL
same,AUC(0-last),"[1]; 12 mg/kg IV, average",115146 ng·min/mL
same,C0,"[1]; 12 mg/kg IV, average",9144.0 ng/mL
same,Vss,"[1]; 12 mg/kg IV, average",9.796 L/kg
same,Vz,"[1]; 12 mg/kg IV, average",12.039 L/kg
same,t1/2,"[1]; 12 mg/kg IV, average",2.45 h
same,AUC(0-last),[1]; [3],19934.3 ng·min/mL and 95802.8 ng·min/mL and 229701.4 ng·min/mL
same,C0,[1]; [3],7086.8 ng/mL and 17984.5 ng/mL and 2360.7 ng/mL
same,AUC(0-inf),[1]; [4],115420.9 ng·min/mL and 302035.6 ng·min/mL
same,Vss,[1]; [4],6.0519 L/kg and 13.5396 L/kg
same,Vz,[1]; [4],11.6998 L/kg and 12.3785 L/kg
same,t1/2,[1]; [4],1.3 h and 3.6 h
same,F (0-inf),[1]; [5],49.1%
same,F (0-last),[1]; [5],82.1%
same,Plasma Concentration of CNS-102,"[1]; 24 mg/kg oral, 10 min, average",0.0 ng/mL
same,Plasma Concentration of CNS-102,"[1]; 24 mg/kg oral, 10 min, individual rats 4-6, BQL set to zero",0 ng/mL
same,Plasma Concentration of CNS-102,"[1]; 24 mg/kg oral, 30 min, average",193.3 ng/mL
same,Plasma Concentration of CNS-102,"[1]; 24 mg/kg oral, 30 min, individual rats 4-6, 24 mg/kg",193.8 ng/mL and 224.3 ng/mL and 161.8 ng/mL
same,Plasma Concentration of CNS-102,"[1]; 24 mg/kg oral, 60 min, average",576.8 ng/mL
same,Plasma Concentration of CNS-102,"[1]; 24 mg/kg oral, 60 min, individual rats 4-6, 24 mg/kg",331.9 ng/mL and 500.2 ng/mL
same,Plasma Concentration of CNS-102,"[1]; 24 mg/kg oral, 120 min, average",176.8 ng/mL
same,Plasma Concentration of CNS-102,"[1]; 24 mg/kg oral, 120 min, individual rats 4-6",147.6 ng/mL
same,Plasma Concentration of CNS-102,"[1]; 24 mg/kg oral, 240 min, average",298.0 ng/mL
same,Plasma Concentration of CNS-102,"[1]; 24 mg/kg oral, 240 min, individual rats 4-6, BQL set to zero",0 ng/mL
same,Plasma Concentration of CNS-102,"[1]; 24 mg/kg oral, 480 min, average",489.7 ng/mL
same,Plasma Concentration of CNS-102,"[1]; 24 mg/kg oral, 720 min, average",47.2 ng/mL
same,Plasma Concentration of CNS-102,"[1]; 24 mg/kg oral, 720 min, individual rats 4-6, BQL set to zero",0 ng/mL
same,Plasma Concentration of CNS-102,"[1]; 24 mg/kg oral, 1440 min, average",0.0 ng/mL
same,Plasma Concentration of CNS-102,"[1]; 24 mg/kg oral, 1440 min, individual rats 4-6, BQL set to zero",0 ng/mL
same,AUC(0-inf),"[1]; 24 mg/kg oral, average",204878 ng·min/mL
same,AUC(0-last),"[1]; 24 mg/kg oral, average",189114 ng·min/mL
same,Cmax,"[1]; 24 mg/kg oral, average",752.9 ng/mL
same,Tmax,"[1]; 24 mg/kg oral, average",340 min
same,t1/2,"[1]; 24 mg/kg oral, average",1.72 h
same,AUC(0-inf),[1]; [6],234242 ng·min/mL and 157666 ng·min/mL and 222724 ng·min/mL
same,AUC(0-last),[1]; [6],214144 ng·min/mL and 130474 ng·min/mL and 222724 ng·min/mL
same,Cmax,[1]; [6],768 ng/mL and 898.2 ng/mL and 592.5 ng/mL
same,F (0-inf),[1]; [6],56.1% and 37.8% and 53.4%
same,F (0-last),[1]; [6],93.0% and 56.7% and 96.7%
same,Tmax,[1]; [6],480 min (2×) and 60 min
same,t1/2,[1]; [6],1.64 h and 2.895 h and 0.613 h
same,"HSP90 mean fold change (CNS-102 treated/PBS treated), mean ± SD",HSP90; 24 h,1.32 ± 0.95
same,"HSP90 mean fold change (CNS-102 treated/PBS treated), mean ± SD",HSP90; 48 h,1.16 ± 0.55
same,"HSP90 mean fold change (CNS-102 treated/PBS treated), mean ± SD",HSP90; 72 h,2.59 ± 1.27
same,"HSP90 mean fold change (CNS-102 treated/PBS treated), mean ± SD",HSP90; 96 h,1.68 ± 0.72
same,"Run Duration, CNS-102 - vehicle difference of averages",SOD1 mice; P120,−1.68
same,"Stride Length, CNS-102 - vehicle difference of averages",SOD1 mice; P120,1.46
same,"Swing Speed, CNS-102 - vehicle difference of averages",SOD1 mice; P120,14.58
same,"Run Duration, Mean/average","SOD1 mice; P-42, SOD1/Vehicle 1.484746201",1.685
same,"Hind stride length, Mean/average","SOD1 mice; P-42, SOD1/Vehicle 6.359471205",6.082
same,"Swing speed, Mean/average","SOD1 mice; P-42, SOD1/Vehicle 45.8515272",41.18
same,"Run Duration, Mean/average","SOD1 mice; P-124 (+/−) 3, SOD1/Vehicle 3.461605345",1.976
same,"Hind stride length, Mean/average","SOD1 mice; P-124 (+/−) 3, SOD1/Vehicle 3.607909383",5.476
same,"Swing speed, Mean/average","SOD1 mice; P-124 (+/−) 3, SOD1/Vehicle 23.93413455",35.63
same,ABSOLUTE BASOPHIL,[2],0 per mm^3
same,ABSOLUTE EOSINOPHIL,[2],61.6 per mm^3
same,ABSOLUTE LYMPHOCYTE,[2],3922.4 per mm^3
same,ABSOLUTE MONOCYTE,[2],49.8 per mm^3
same,ABSOLUTE NEUTROPHIL SEG,[2],659.6 per mm^3
same,ALKALINE PHOSPHATASE,[2],70.7 U/L
same,BASOPHIL,[2],0.0%
same,BICARBONATE,[2],5.0 mg/dL
same,BUN,[2],28.8 mg/dL
same,CALCIUM,[2],7.7 mg/dL
same,CHOLESTEROL,[2],72.4 mg/dL
same,CREATININE,[2],<1 mg/dL
same,DIRECT BILIRUBIN,[2],0.0 mg/dL
same,EOSINOPHIL,[2],1.5%
same,GLUCOSE,[2],207.6 mg/dL
same,HCT,[2],46.0%
same,HGB,[2],13.6 gram/dL
same,INDIRECT BILIRUBIN,[2],0.0 mg/dL
same,LYMPHOCYTE,[2],84.0%
same,MCH,[2],15.5 pg
same,MCHC,[2],29.5%
same,MCV,[2],52.6 U^3
same,MONOCYTE,[2],0.8%
same,NEUTROPHIL SEG,[2],13.8%
same,NRBC,[2],0.0 per 100 WBC
same,PHOSPHORUS,[2],5.7 mg/dL
same,PLATELET COUNT,[2],1128.6 Thousands
same,RBC,[2],8.8 Millions
same,SGOT (AST),[2],46.3 U/L
same,SGPT (ALT),[2],37.8 U/L
same,TOTAL BILIRUBIN,[2],0.0 mg/dL
same,WBC,[2],4.7 thousands
same,"HSP70 Expression (Fold change vs vehicle control), mean ± SD",HSP70; 24 hr,1.47 ± 0.36
same,"HSP70 Expression (Fold change vs vehicle control), mean ± SD",HSP70; 48 hr,1.33 ± 0.10
same,"HSP70 Expression (Fold change vs vehicle control), mean ± SD",HSP70; 72 hr,1.40 ± 0.11
